Experimental data from patent publication US6716819B2, “Use of xylitol to reduce ionic strength and activate endogenous antimicrobials for prevention and treatment of infections” (University of Iowa Research Foundation, priority 2000, dated 2004).

Experiments:
[1] = system: coagulase-negative Staphylococcus; test: Growth in carbon-starved M9 media (O.D.); assay type: cell-based; settings: M9 media supplemented at 100 mM
Procedure: (§1) FIGS. 5(A-G). […] A, B and C. Growth of P. aeruginosa (A), S. aureus, (B), and coagulase-negative Staphylococcus (C) were measured as O. D. M9 media alone is indicated by open triangle. Xylitol (closed circle), or succinate, mannitol, or sucrose (open circles), were added to M9 media at 100 mM as indicated. D. Nasal swabs were collected and cultured for 3 days in Lauria-Bertani media (open circles), in minimal M9 media (open squares), or in M9 media supplemented with 100 mM xylitol (closed circles). E, F and G. P. aeruginosa (E), S. aureus (F), and coagulase-negative Staphylococcus (G) were cultured in Lauria-Bertani media alone (open triangles), Lauria-Bertani media with 100 mM xylitol (closed circles), and Lauria-Bertani media containing tobramycin or levofloxacin (open circles).
(§2) To test the effect of xylitol on growth of different airway pathogens in a carbon-starved media, P. aeruginosa, S. aureus, and coagulase-negative Staphylococcus were grown overnight in Lauria-Bertani medium. The bacteria were then centrifuged and resuspended in M9 media containing either 100 mM succinate, mannitol, or sucrose, respectively, and grown overnight at 37° C. The bacteria were centrifuged and resuspended in M9 media alone. M9 media containing 100 mM xylitol, or 100 mM of the indicated metabolizable sugar, as positive control. The optical density (O.D.) was measured after 0, 1, 2, and 4 hours at 600 nm on a Beckman DU640 Spectrophotometer (Schaumburg, Ill.). To test the antibiotic effect of xylitol, P. aeruginosa, S. aureus, and coagulase-negative Staphylococcus were grown overnight in Lauria-Bertani medium. The bacteria were then centrifuged and resuspended in Lauria-Bertani media with and without 100 mM xylitol. As a positive control, antibiotics with specific activity to each of the bacteria were added to the media (40 μg/ml tobramycin or 40 μg/ml levofloxacin).

P. aeruginosa = test: Growth in carbon-starved M9 media (O.D.); assay type: cell-based; settings: M9 media supplemented at 100 mM
Procedure: as §1, §2

non-CF epithelia = test: ASL Cl- concentration and volume (isotope method); assay type: cell-based, human
Procedure: FIGS. 3(A-B). The effect of apical xylitol on non-CF and CF ASL Cl^− concentration and volume. Five μl of isosmotic xylitol or saline solution were applied to the apical surface. Twenty-four hours later, ASL Cl^− concentration (A) and volume (B) were determined. Asterisk indicates a difference between the saline and the xylitol solutions, p<0.05. N=15 to 18 from 3 CF and 3 non-CF specimens.
Airway epithelial cells were isolated from tracheal and bronchial tissue. […] All epithelia were evaluated with scanning electron microscopy for the development of a ciliated apical surface.
The ASL Cl^− concentration was measured as previously described (Zabner, J., J. J. Smith, P. H. Karp, J. H. Widdicombe, and M. J. Welsh. 1998. Loss of CFTR chloride channels alters salt absorption by cystic fibrosis airway epithelia in vitro. Mol. Cell. 2:397-403). […] The ratio of ^36Cl to ^3H2O was determined by liquid scintillation. […] From these measurements, it was determined the ^3H2O activity per μl of water and the cpm of ^36Cl per mole of Cl^− in the basolateral medium. ASL volume was calculated from the ASL ^3H2O collected divided by the ratio of ^3H2O activity per μl of basolateral medium. Chloride content was calculated from the ASL ^36Cl collected divided by the ratio of ^36Cl per mole of Cl^− in the basolateral medium ASL Cl^− concentration was calculated from the Cl^− content divided by the volume of ASL. […]

[2] = system: coagulase-negative Staphylococcus
Text: Effect of xylitol administration to nasal mucosa on coagulase-negative Staphylococcus.
Subjects were over 18 years old. […] Twenty-one normal healthy subjects (10 male and 11 female, age 20 to 52 years) participated.
The design was a double-blind, randomized, cross-over study. Subjects were randomized to one of two groups: xylitol followed by saline or saline followed by xylitol. A culture of both anterior nares was obtained on day zero. Then subjects sprayed each nostril with a prefilled syringe of solution 4 times per day for 4 days. On the morning of day 5, subjects did their final application at breakfast time, then a nasal swab was obtained 2 hours later. No treatment was administered for the next 7 days. Subjects then repeated the protocol with the opposite solution. The saline solution was 0.9% NaCl in water (Baxter Health Care Corp., Deerfield, Ill.). The xylitol solution was 5% xylitol (304 mM) in water. The solutions were nebulized using an Accuspray syringe (Becton Dickinson Pharmaceutical Systems, Franklin Lakes, N.J.), containing 250 μl of solution. The xylitol and saline syringes were identical. The mass medium diameter of particles was ˜60 μm. It was impossible to disguise the sweet taste of xylitol.
Samples for cultures were obtained with sterile rayon swabs (Culturette Collection and Transport System, Becton Dickinson Microbiology Systems, Sparks, Md.). […] The plates were incubated at 37° C. for 24 hours and the colonies of coagulase-negative Staphylococcus colonies were identified and counted using a Cling-On Grid (Spiral Biotech, Bethesda, Md.). […]
A randomized, double-blind, cross-over study was performed. The nasal mucosa was swabbed and the number of coagulase-negative Staphylococcus was determined by culture. […] After 4 days, the number of nasal coagulase-negative Staphylococcus was counted again. […]
Analysis of variance for a cross-over design was applied on the change in bacterial count from pretreatment to post treatment. […] Thus, the comparison of xylitol vs. saline was evaluated from the data of both nostrils and both sequences.

OC[C@@H](O)[C@H](O)[C@@H](O)CO [xylitol]
growth of coagulase-negative Staphylococcus [1]: failed to support growth | growth of P. aeruginosa (P. aeruginosa): no growth | estimated ASL volume (non-CF epithelia; 24 hours after 5 μl apical): increased | ASL Cl- concentration (non-CF epithelia; 24 hours after 5 μl isosmotic xylitol solution apical): 34.2 ± 4.3 mM | adverse effects reported by subjects ([2]; in vivo): none of the subjects tested reported adverse effects | median change in coagulase-negative Staphylococcus count ([2]; normal subjects, nasal spray 4 times a day for 4 days, interquartile range in brackets): 500 (interquartile range of 1152 to 120) cfu | average reduction of coagulase-negative Staphylococcus in treated nostrils ([2]; normal subjects, nasal spray 250 μl per nostril 4 times a day for 4 days, p=0.05 vs saline): 597±242 cfu
